# According to patent US10323022B2, “Pyrrolidinyl urea, pyrrolidinyl thiourea and pyrrolidinyl guanidine compounds as TrkA kinase inhibitors” (Array BioPharma Inc., priority 2011, dated 2019):
# Target: TrkA (Homo sapiens (Human), UniProt P04629)
# Assay: TrkA Omnia Assay
# Format: biochemical
# Conditions: averaged IC50; 20 nM enzyme, 500 μM ATP, 10 μM peptide substrate
# Method in brief: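 Continuous fluorescent kinase read-out (ex 360 nm, em 485 nm) over 70 min, with initial rates fitted to 4- or 5-parameter logistic curves for IC50. Final conditions: 500 μM ATP, 10 μM Omnia Tyr Peptide #4, 20 nM TrkA, MOPS pH 7.5 buffer with MgCl2 and Triton X-100; enzyme and compound preincubated 10 min at ambient temperature.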
# Sequence of TrkA (P04629 33-796): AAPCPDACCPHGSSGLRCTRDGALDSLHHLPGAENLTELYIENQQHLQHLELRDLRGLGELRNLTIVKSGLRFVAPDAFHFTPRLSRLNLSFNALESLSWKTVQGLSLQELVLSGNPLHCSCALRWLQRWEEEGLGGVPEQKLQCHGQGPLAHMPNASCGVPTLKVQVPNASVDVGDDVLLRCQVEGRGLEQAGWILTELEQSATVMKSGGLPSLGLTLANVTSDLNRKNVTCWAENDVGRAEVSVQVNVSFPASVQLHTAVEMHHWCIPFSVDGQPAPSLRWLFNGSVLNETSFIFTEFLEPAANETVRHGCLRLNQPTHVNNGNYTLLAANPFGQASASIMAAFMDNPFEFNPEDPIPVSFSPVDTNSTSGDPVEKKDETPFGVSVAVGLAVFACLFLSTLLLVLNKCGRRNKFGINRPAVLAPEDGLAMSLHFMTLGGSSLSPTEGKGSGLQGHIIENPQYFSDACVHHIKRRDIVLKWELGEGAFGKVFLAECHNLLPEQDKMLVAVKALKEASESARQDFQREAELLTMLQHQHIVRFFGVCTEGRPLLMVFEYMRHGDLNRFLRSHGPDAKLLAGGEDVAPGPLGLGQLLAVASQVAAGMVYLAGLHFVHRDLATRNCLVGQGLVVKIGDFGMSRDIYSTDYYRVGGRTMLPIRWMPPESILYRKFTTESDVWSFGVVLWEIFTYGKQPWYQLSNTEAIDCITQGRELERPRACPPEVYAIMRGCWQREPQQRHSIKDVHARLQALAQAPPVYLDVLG
row,IC50,Compound
1,< 100 nM,"COCCN1C[C@@H](NC(=O)Nc2c(C)c(-c3cc(C)n(C)n3)nn2-c2ccccc2)[C@H](c2ccc(F)cc2)C1 [Example 307, 1-((3S,4R)-4-(4-fluorophenyl)-1-(2-methoxyethyl)pyrrolidin-3-yl)-3-(1′,4,5′-trimethyl-1-phenyl-1H,1′H-[3,3′-bipyrazol]-5-yl)urea]"
2,< 100 nM,"COCCN1C[C@@H](NC(=O)Nc2c(C)c(-c3cc(C)nn3C)nn2-c2ccccc2)[C@H](c2ccc(F)c(F)c2)C1 [Example 308, 1-((3S,4R)-4-(3,4-difluorophenyl)-1-(2-methoxyethyl)pyrrolidin-3-yl)-3-(2′,4,5′-trimethyl-1-phenyl-1H,2′H-[3,3′-bipyrazol]-5-yl)urea]"
3,< 100 nM,"COCCN1C[C@@H](NC(=O)Nc2c(C3CC3)c(-c3cnn(C)c3)nn2-c2ccccc2)[C@H](c2ccc(F)c(F)c2)C1 [Example 309, 1-(4-cyclopropyl-1′-methyl-1-phenyl-1H,1′H-[3,4′-bipyrazol]-5-yl)-3-((3S,4R)-4-(3,4-difluorophenyl)-1-(2-methoxyethyl)pyrrolidin-3-yl)urea]"
4,100 to 1000 nM,"COCCN1C[C@@H](NC(=O)Nc2c(C(C)C)c(-c3cnn(C)c3)nn2-c2ccccc2)[C@H](c2ccc(F)c(F)c2)C1 [Example 310, 1-((3S,4R)-4-(3,4-difluorophenyl)-1-(2-methoxyethyl)pyrrolidin-3-yl)-3-(4-isopropyl-1′-methyl-1-phenyl-1H,1′H-[3,4′-bipyrazol]-5-yl)urea]"
5,< 100 nM,"CCc1c(-c2cnn(C)c2)nn(-c2ccccc2)c1NC(=O)N[C@@H]1CN(CCOC)C[C@H]1c1ccc(F)c(F)c1 [Example 311, 1-((3S,4R)-4-(3,4-difluorophenyl)-1-(2-methoxyethyl)pyrrolidin-3-yl)-3-(4-ethyl-1′-methyl-1-phenyl-1H,1′H-[3,4′-bipyrazol]-5-yl)urea]"
6,< 100 nM,"COCCN1C[C@@H](NC(=O)Nc2c(C)c(-c3cnn(C)c3)nn2-c2ccc(F)cc2)[C@H](c2ccc(F)c(F)c2)C1 [Example 312, 1-((3S,4R)-4-(3,4-difluorophenyl)-1-(2-methoxyethyl)pyrrolidin-3-yl)-3-(1-(4-fluorophenyl)-1′,4-dimethyl-1H,1′H-[3,4′-bipyrazol]-5-yl)urea]"
7,< 100 nM,"COCCN1C[C@@H](NC(=O)Nc2c(C)c(-c3cnn(C)c3)nn2-c2cccc(F)c2)[C@H](c2ccc(F)c(F)c2)C1 [Example 313, 1-((3S,4R)-4-(3,4-difluorophenyl)-1-(2-methoxyethyl)pyrrolidin-3-yl)-3-(1-(3-fluorophenyl)-1′,4-dimethyl-1H,1′H-[3,4′-bipyrazol]-5-yl)urea]"
8,< 100 nM,"COCCN1C[C@@H](NC(=O)Nc2c(C)c(-c3cnn(C)c3)nn2-c2ccccc2F)[C@H](c2ccc(F)c(F)c2)C1 [Example 314, 1-((3S,4R)-4-(3,4-difluorophenyl)-1-(2-methoxyethyl)pyrrolidin-3-yl)-3-(1-(2-fluorophenyl)-1′,4-dimethyl-1H,1′H-[3,4′-bipyrazol]-5-yl)urea]"
9,100 to 1000 nM,"COCCN1C[C@@H](NC(=O)Nc2c(C)c(-c3cnn(C)c3)nn2-c2ccc(F)cc2)[C@H](c2ccc(F)cc2)C1 [Example 318, 1-((3S,4R)-4-(4-fluorophenyl)-1-(2-methoxyethyl)pyrrolidin-3-yl)-3-(1-(4-fluorophenyl)-1′,4-dimethyl-1H,1′H-[3,4′-bipyrazol]-5-yl)urea]"
10,< 100 nM,COCCN1C[C@@H](NC(=O)Nc2c(C)c(-c3cnn(C)c3)nn2-c2ccc(F)c(Cl)c2)[C@H](c2ccc(F)cc2)C1 [Example 322]
11,< 100 nM,COCCN1C[C@@H](NC(=O)Nc2c(C)c(-c3cnn(C)c3)nn2-c2cccc(Cl)c2F)[C@H](c2ccc(F)cc2)C1 [Example 323]
12,< 100 nM,"COCCN1C[C@@H](NC(=O)Nc2c(C)c(-c3cnn(C)c3)nn2-c2ccccc2)[C@H](c2ccc(F)cc2F)C1 [Example 324, 1-((3S,4R)-4-(2,4-difluorophenyl)-1-(2-methoxyethyl)pyrrolidin-3-yl)-3-(1′,4-dimethyl-1-phenyl-1H,1′H-[3,4′-bipyrazol]-5-yl)urea]"
13,< 100 nM,"COCCN1C[C@@H](NC(=O)Nc2c(C)c(-c3cnn(C)c3)nn2-c2ccccc2)[C@H](c2ccc(C)cc2)C1 [Example 327, 1-(1′,4-dimethyl-1-phenyl-1H,1′H-[3,4′-bipyrazol]-5-yl)-3-((3S,4R)-1-(2-methoxyethyl)-4-(p-tolyl)pyrrolidin-3-yl)urea]"
14,< 100 nM,"COCCN1C[C@@H](NC(=O)Nc2c(C)c(-c3ccccc3)nn2-c2ccccc2)[C@H](c2ccc(F)c(F)c2)C1 [Example 328, 1-((3S,4R)-4-(3,4-difluorophenyl)-1-(2-methoxyethyl)pyrrolidin-3-yl)-3-(4-methyl-1,3-diphenyl-1H-pyrazol-5-yl)urea]"
15,< 100 nM,"COCCN1C[C@@H](NC(=O)Nc2c(C)c(-c3ccccc3)nn2-c2ccccc2)[C@H](c2cc(F)cc(F)c2)C1 [Example 329, 1-((3S,4R)-4-(3,5-difluorophenyl)-1-(2-methoxyethyl)pyrrolidin-3-yl)-3-(4-methyl-1,3-diphenyl-1H-pyrazol-5-yl)urea]"
16,< 100 nM,"COCCN1C[C@@H](NC(=O)Nc2c(C)c(-c3ccccc3)nn2-c2ccccc2)[C@H](c2cc(F)c(F)c(F)c2)C1 [Example 330, 1-((3S,4R)-4-(3,4,5-trifluorophenyl)-1-(2-methoxyethyl)pyrrolidin-3-yl)-3-(4-methyl-1,3-diphenyl-1H-pyrazol-5-yl)urea]"
17,< 100 nM,"COCCN1C[C@@H](NC(=O)Nc2c(C)c(-c3ccccc3)nn2-c2ccccc2)[C@H](c2ccc(F)cc2)C1 [Example 331, 1-((3S,4R)-4-(4-fluorophenyl)-1-(2-methoxyethyl)pyrrolidin-3-yl)-3-(4-methyl-1,3-diphenyl-1H-pyrazol-5-yl)urea]"
18,100 to 1000 nM,COCCN1CC(c2cnn(C)c2)[C@H](NC(=O)Nc2c(Br)c(C)nn2-c2ccccc2)C1 (some centres unmarked) [Example 332]
19,< 100 nM,"COCCN1C[C@@H](NC(=O)Nc2c(C)c(C)nn2-c2ccccc2)[C@H](c2cccc(C(F)(F)F)c2)C1 [Example 336, 1-(3,4-dimethyl-1-phenyl-1H-pyrazol-5-yl)-3-((3S,4R)-1-(2-methoxyethyl)-4-(3-(trifluoromethyl)phenyl)pyrrolidin-3-yl)urea]"
20,< 100 nM,"COCCN1C[C@@H](NC(=O)Nc2c3c(nn2-c2ccccc2)CCC3)[C@H](c2cncc(F)c2)C1 [Example 337, 1-((3S,4R)-4-(5-fluoropyridin-3-yl)-1-(2-methoxyethyl)pyrrolidin-3-yl)-3-(2-phenyl-2,4,5,6-tetrahydrocyclopenta[c]pyrazol-3-yl)urea]"
21,< 100 nM,"COCCN1C[C@H](NC(=O)Nc2c3c(nn2-c2ccccc2)CCC3)[C@@H](c2cncc(F)c2)C1 [Example 338, 1-((3R,4S)-4-(5-fluoropyridin-3-yl)-1-(2-methoxyethyl)pyrrolidin-3-yl)-3-(2-phenyl-2,4,5,6-tetrahydrocyclopenta[c]pyrazol-3-yl)urea]"
22,< 100 nM,"COCCN1C[C@@H](NC(=O)Nc2c(C)c(OCCF)nn2-c2ccccc2)[C@H](c2cncc(F)c2)C1 [Example 339, 1-(3-(2-fluoroethoxy)-4-methyl-1-phenyl-1H-pyrazol-5-yl)-3-((3S,4R)-4-(5-fluoropyridin-3-yl)-1-(2-methoxyethyl)pyrrolidin-3-yl)urea]"
23,100 to 1000 nM,"COCCN1C[C@H](NC(=O)Nc2c(C)c(OCCF)nn2-c2ccccc2)[C@@H](c2cncc(F)c2)C1 [Example 340, 1-(3-(2-fluoroethoxy)-4-methyl-1-phenyl-1H-pyrazol-5-yl)-3-((3R,4S)-4-(5-fluoropyridin-3-yl)-1-(2-methoxyethyl)pyrrolidin-3-yl)urea]"
24,< 100 nM,"COCCN1C[C@@H](NC(=O)Nc2c(C)c(-c3cnn(C)c3)nn2-c2ccccc2)[C@H](c2ccncc2F)C1 [Example 346, 1-(1′,4-dimethyl-1-phenyl-1H,1′H-[3,4′-bipyrazol]-5-yl)-3-((3S,4R)-4-(3-fluoropyridin-4-yl)-1-(2-methoxyethyl)pyrrolidin-3-yl)urea]"
25,< 100 nM,"COCCN1C[C@@H](NC(=O)Nc2c(C)c(-c3ncn(C)n3)nn2-c2ccccc2)[C@H](c2ccc(F)c(F)c2)C1 [Example 347, 1-((3S,4R)-4-(3,4-difluorophenyl)-1-(2-methoxyethyl)pyrrolidin-3-yl)-3-(4-methyl-3-(1-methyl-1H-1,2,4-triazol-3-yl)-1-phenyl-1H-pyrazol-5-yl)urea]"
26,< 100 nM,"COCCN1C[C@@H](NC(=O)Nc2c(C)c(-c3cnn(CCOC)c3)nn2-c2ccccc2)[C@H](c2ccc(F)c(F)c2)C1 [Example 348, 1-((3S,4R)-4-(3,4-difluorophenyl)-1-(2-methoxyethyl)pyrrolidin-3-yl)-3-(1′-(2-methoxyethyl)-4-methyl-1-phenyl-1H,1′H-[3,4′-bipyrazol]-5-yl)urea]"
27,< 100 nM,"COCCN1C[C@@H](NC(=O)Nc2c(C)c(C#N)nn2-c2ccccc2)[C@H](c2ccc(F)c(F)c2)C1 [Example 349, 1-(3-cyano-4-methyl-1-phenyl-1H-pyrazol-5-yl)-3-((3S,4R)-4-(3,4-difluorophenyl)-1-(2-methoxyethyl)pyrrolidin-3-yl)urea]"
28,< 100 nM,"COCCN1C[C@@H](NC(=O)Nc2c(C)c(-c3cnn(CCO)c3)nn2-c2ccccc2)[C@H](c2ccc(F)c(F)c2)C1 [Example 350, 1-((3S,4R)-4-(3,4-difluorophenyl)-1-(2-methoxyethyl)pyrrolidin-3-yl)-3-(1′-(2-hydroxyethyl)-4-methyl-1-phenyl-1H,1′H-[3,4′-bipyrazol]-5-yl)urea]"
29,< 100 nM,"COCCN1C[C@@H](NC(=O)Nc2c(C)c(-c3cnn(C)n3)nn2-c2ccccc2)[C@H](c2ccc(F)c(F)c2)C1 [Example 351, 1-((3S,4R)-4-(3,4-difluorophenyl)-1-(2-methoxyethyl)pyrrolidin-3-yl)-3-(4-methyl-3-(2-methyl-2H-1,2,3-triazol-4-yl)-1-phenyl-1H-pyrazol-5-yl)urea]"
